What is called ED50 is the dose that gives a 50% effect, or the effect in half of the subjects.

The structures appear in SMILES notation. Read-outs that look alike come from different tables or passages of the source.

Test [1] relates to apomorphine-induced stereotypy. Kind of test: Apomorphine-induced stereotypy in rats (APO). Format: in vivo. Particulars: Rattus norvegicus. As for the experimental part:
Apomorphine-Induced Stereotypy in Rats (APO)
Apomorphine (1.0 mg/kg, i.v.)-induced stereotypy (compulsive sniffing, licking, chewing) was scored every 5 min. over the first hour after injection of apomorphine, following a 1 hour interval pre-treatment with the test compound. The score system was: (3) pronounced, (2) moderate, (1) slight, and (O) absent.

The target of the next test is T1, PDE10 (Rattus norvegicus, UniProt Q9QYJ6).
T1 construct: from tissue; host or cells: rat brain sections, striatum (ex vivo autoradiography after in vivo dosing)
T1 sequence (Q9QYJ6 1-794): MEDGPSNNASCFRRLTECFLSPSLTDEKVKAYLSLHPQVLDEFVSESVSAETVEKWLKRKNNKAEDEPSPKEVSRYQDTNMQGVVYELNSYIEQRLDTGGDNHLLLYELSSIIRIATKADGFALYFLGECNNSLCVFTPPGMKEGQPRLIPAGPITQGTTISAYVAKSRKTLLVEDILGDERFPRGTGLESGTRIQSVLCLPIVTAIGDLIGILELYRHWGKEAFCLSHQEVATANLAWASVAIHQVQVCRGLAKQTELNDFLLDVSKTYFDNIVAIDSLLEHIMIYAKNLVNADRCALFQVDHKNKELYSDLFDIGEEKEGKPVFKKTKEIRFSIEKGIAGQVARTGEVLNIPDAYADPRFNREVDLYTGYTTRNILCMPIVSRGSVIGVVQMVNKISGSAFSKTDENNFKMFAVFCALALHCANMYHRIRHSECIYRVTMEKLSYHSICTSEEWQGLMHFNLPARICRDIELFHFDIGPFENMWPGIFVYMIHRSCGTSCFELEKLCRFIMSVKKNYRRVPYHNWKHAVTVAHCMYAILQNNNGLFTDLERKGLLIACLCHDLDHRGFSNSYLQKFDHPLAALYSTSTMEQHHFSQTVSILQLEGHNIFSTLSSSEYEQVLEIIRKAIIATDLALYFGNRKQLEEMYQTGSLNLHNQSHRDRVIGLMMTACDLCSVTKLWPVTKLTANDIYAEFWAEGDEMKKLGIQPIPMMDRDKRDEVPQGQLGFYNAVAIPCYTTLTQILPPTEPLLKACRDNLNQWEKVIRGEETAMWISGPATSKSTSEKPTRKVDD
Kind of test: PDE10 occupancy ([3H]-MP-10, striatum). Type of test: in vivo. The conditions noted are these: administered s.c. How it is done: Dose-response or single dose experiments were performed to measure PDE10 occupancy 1 hour after subcutaneous (s.c.) or oral (p.o.) administration. Male Wistar rats (200 g) were treated by s.c. or p.o. administration of various PDE10 inhibitors. The PDE10 radioligand [^3H]-MP-10 (10 μCi/animal) was injected intravenously (i.v.) 30 minutes before sacrifice. Brains were immediately removed from the skull and rapidly frozen. Twenty μm-thick brain sections were cut using a cryostat-microtome, thaw-mounted on microscope slides and loaded in a β-imager to quantify PDE10 occupancy in the striatum.

In the next test the target is PDE9A (Homo sapiens, UniProt O76083). As to the kind of experiment: In vitro PDE selectivity assay, PDE9A. Type of test: biochemical. As for the experimental part:
(§1) Rat recombinant PDE10A (rPDE10A2) was expressed in Sf9 cells using a recombinant rPDE10A baculovirus construct. Cells were harvested after 48 h of infection and the rPDE10A protein was purified by metal chelate chromatography on Ni-sepharose 6FF. […] The reaction was incubated for 60 min. at RT. […] After sedimentation of the beads during 30 min. the radioactivity was measured in a Perkin Elmer Topcount scintillation counter and results were expressed as cpm. For blank values the enzyme was omitted from the reaction and replaced by incubation buffer. […] The same assay principle is applied for the measurement of the affinity of the compound for other members of the PDE family with appropriate modifications in incubation buffer, substrate concentration, incubation time and stop solution.

In test [2] the target is T2, Rat recombinant PDE10A (rPDE10A2) (Rattus norvegicus, UniProt Q9QYJ6).
T2 construct: made in house; host or cells: Sf9 insect cells, baculovirus
T2 sequence (Q9QYJ6 1-794): T1 sequence (Q9QYJ6 1-794)
As to the kind of experiment: In vitro assay PDE10A (SPA, 3H-cAMP). Type of test: biochemical. The procedure, abridged: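 Purified Sf9-expressed rat PDE10A2 incubated 60 min at RT with 60 nM cAMP plus 0.008 μCi 3H-cAMP in 50 mM Tris pH 7.8, 8.3 mM MgCl2, 1.7 mM EGTA, 1% DMSO final. Product quantified by scintillation proximity counting against no-enzyme blanks and DMSO controls.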

Another test has as its target PDE4D (Homo sapiens, UniProt Q08499). Kind of test: In vitro PDE selectivity assay, PDE4D. Type of test: biochemical. The conditions noted are these: Table 4a in vitro selectivity; read-out: IC50 PDE type 4D. How it is done: as §1
For the next test, the target named is PDE3A (Homo sapiens, UniProt Q14432). Kind of test: In vitro PDE selectivity assay, PDE3A. Format: biochemical. Particulars: Table 4a in vitro selectivity; read-out: IC50 PDE type 3A. How it is done:
as §1

For a further test, the target named is PDE1B (Homo sapiens, UniProt Q01064). As to the kind of experiment: In vitro PDE selectivity assay, PDE1B. Particulars: Table 4a in vitro selectivity; read-out: IC50 PDE type 1B. Type of test: biochemical. As for the experimental part:
as §1

The target in a further test is PDE5A (Homo sapiens, UniProt O76074). Kind of test: In vitro PDE selectivity assay, PDE5A. Format: biochemical. The conditions noted are these: Table 4a in vitro selectivity; read-out: IC50 PDE type 5A. How it is done: as §1
Another test has as its target PDE7A (Homo sapiens, UniProt Q13946). Kind of test: In vitro PDE selectivity assay, PDE7A. Particulars: Table 4a in vitro selectivity; read-out: IC50 PDE type 7A. Format: biochemical. How it is done:
as §1

A further test concerns the target PDE11A (Homo sapiens, UniProt Q9HCR9). As to the kind of experiment: In vitro PDE selectivity assay, PDE11A. Format: biochemical. The conditions noted are these: Table 4a in vitro selectivity; read-out: IC50 PDE type 11A. How it is done:
as §1

A further test concerns the target PDE2A (Homo sapiens, UniProt O00408). Kind of test: In vitro PDE selectivity assay, PDE2A. Format: biochemical. How it is done:
as §1

The test system of test [3] is conditioned avoidance response. Kind of test: Conditioned avoidance response (CAR) test. The conditions noted are these: Rattus norvegicus. Format: in vivo. An excerpt: Conditioned Avoidance Response (CAR) Test
The apparatus consisted of an inner box surrounded by an outer box. The inner box was composed of four walls of transparent, synthetic material (length×width×height: 30×30×30 cm), an open top, and a grid floor made of 15 pairs of iron bars (2 mm diameter; 6 mm inter-bar distance). Odd and even bars were connected with a source of alternative current (1.0 mA; Coulbourn Instruments Solid State Shocker/Distributor), which could be interrupted by a switch. The outer box was composed of the same material (length×width×height: 40×40×36 cm), also with an open top, with a distance of 5 cm between the inner and outer box on all sides. To decrease the amount of environmental stimuli, three walls of the outer box were made non-transparent. The front wall was left transparent to allow the necessary inspection of the animal during the test. The upper edge of the outer and inner box served as a target for the rats on which to jump with fore- and hind-paws, respectively.
From their arrival in the laboratory on the experimental day, male Wiga Wistar rats (230±30 g) were housed in individual cages provided with bedding material.
The rats were tested 3 times, i.e. at 60, 90 and 120 min after the injection of test compound or solvent. Latency to avoidance was recorded. The median avoidance response obtained over the three experimental sessions for each rat were used for further calculations.

For test [4], the system named is PCP-induced hyperlocomotion. Kind of test: PCP-induced hyperlocomotion in rats (PCP). Format: in vivo. Particulars: Rattus norvegicus.
In test [5] the test system is scopolamine induced memory deficit. Kind of test: Object recognition test (scopolamine induced memory deficit). Format: in vivo, rat. Particulars: rats. As for the experimental part:
They were kept under a 12/12-hour light/dark cycle (lights on from 19.00 to 7.00 h) and had free access to food and water. […] A radio, which was playing softly, provided background noise in the room. […] The apparatus consisted of a circular arena, 83 cm in diameter. […] The light intensity was equal in the different parts of the apparatus, as fluorescent red tubes provided a constant illumination of about 20 lux on the floor of the apparatus. […] Each object was available in triplicate. Four different sets of objects were used. A testing session consisted of two trials. […] During the first trial (T1) the apparatus contained two identical objects (samples). Rats were placed in the apparatus facing the wall at the middle of the front (transparent) segment. After the first exploration period the rat was put back in its home cage. […] Exploration was defined as follows: directing the nose to the object at a distance of no more than 2 cm and/or touching the object with the nose. Sitting on the object was not considered as exploratory behavior.

Setting [6] is: pIC50 corresponds to the -log IC50 expressed in mol/L, read-out: PDE10A2 pIC50 (converted).

PDE2A, sequence (O00408 whole entry, species assumed): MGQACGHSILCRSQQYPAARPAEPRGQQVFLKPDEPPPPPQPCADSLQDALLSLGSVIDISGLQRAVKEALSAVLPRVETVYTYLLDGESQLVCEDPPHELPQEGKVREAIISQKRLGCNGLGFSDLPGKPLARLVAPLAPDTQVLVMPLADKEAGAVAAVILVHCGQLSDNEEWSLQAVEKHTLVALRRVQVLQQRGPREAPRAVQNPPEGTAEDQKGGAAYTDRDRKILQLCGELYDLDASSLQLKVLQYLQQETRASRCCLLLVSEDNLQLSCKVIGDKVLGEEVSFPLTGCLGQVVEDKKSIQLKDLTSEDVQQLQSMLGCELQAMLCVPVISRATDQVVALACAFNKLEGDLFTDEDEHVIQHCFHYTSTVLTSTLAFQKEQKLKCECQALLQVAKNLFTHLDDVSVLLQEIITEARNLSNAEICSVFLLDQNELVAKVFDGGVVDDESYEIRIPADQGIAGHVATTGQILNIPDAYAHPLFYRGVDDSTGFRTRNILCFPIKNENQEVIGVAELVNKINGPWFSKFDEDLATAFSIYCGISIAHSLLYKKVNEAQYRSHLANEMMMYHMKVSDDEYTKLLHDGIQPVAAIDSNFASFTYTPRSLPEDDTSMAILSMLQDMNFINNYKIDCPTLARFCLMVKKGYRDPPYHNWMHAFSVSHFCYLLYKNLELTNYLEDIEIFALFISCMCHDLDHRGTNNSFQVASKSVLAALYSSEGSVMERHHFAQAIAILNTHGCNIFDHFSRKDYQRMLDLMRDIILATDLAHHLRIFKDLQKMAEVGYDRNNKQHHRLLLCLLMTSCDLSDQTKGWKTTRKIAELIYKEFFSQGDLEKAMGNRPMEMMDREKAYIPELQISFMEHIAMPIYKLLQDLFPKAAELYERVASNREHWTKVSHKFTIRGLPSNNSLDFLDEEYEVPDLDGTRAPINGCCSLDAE
PDE9A, sequence (O76083 whole entry): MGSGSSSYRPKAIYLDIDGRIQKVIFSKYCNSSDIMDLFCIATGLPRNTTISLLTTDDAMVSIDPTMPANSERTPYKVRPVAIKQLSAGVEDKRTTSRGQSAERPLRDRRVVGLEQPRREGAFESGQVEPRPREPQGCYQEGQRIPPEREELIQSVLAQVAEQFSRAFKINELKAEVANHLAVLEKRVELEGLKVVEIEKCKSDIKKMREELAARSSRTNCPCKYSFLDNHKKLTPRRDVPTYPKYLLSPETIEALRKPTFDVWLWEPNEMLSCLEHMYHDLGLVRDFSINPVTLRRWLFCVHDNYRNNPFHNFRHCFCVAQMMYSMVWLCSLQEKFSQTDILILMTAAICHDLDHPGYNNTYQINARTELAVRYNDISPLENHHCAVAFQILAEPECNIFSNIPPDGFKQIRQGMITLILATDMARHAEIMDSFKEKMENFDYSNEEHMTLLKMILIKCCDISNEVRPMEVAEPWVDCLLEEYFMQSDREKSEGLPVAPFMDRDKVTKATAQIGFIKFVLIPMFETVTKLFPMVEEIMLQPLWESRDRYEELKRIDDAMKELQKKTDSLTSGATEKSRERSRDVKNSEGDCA
PDE4D, sequence (Q08499 whole entry, species assumed): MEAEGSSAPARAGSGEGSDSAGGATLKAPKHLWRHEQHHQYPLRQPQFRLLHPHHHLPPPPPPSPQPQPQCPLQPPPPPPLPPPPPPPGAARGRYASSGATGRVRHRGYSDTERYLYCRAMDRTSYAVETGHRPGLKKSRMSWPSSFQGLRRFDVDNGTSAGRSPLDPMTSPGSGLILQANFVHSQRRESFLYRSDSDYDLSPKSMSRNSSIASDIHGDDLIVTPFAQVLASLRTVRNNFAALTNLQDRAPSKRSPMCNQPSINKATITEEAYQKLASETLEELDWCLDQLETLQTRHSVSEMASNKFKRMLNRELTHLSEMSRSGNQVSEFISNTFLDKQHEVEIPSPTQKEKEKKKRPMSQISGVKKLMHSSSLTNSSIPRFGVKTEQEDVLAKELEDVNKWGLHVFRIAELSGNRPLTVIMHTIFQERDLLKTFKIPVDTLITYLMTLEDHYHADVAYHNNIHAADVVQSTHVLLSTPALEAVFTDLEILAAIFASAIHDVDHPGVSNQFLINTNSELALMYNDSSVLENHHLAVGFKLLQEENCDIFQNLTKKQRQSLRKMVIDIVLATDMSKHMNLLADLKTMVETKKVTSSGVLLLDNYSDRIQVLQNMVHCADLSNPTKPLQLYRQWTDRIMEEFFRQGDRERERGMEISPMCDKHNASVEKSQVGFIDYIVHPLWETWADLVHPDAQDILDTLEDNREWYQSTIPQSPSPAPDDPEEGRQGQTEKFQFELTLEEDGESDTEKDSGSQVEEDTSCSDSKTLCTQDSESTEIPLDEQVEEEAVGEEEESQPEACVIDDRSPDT
PDE7A, sequence (Q13946 whole entry, species assumed): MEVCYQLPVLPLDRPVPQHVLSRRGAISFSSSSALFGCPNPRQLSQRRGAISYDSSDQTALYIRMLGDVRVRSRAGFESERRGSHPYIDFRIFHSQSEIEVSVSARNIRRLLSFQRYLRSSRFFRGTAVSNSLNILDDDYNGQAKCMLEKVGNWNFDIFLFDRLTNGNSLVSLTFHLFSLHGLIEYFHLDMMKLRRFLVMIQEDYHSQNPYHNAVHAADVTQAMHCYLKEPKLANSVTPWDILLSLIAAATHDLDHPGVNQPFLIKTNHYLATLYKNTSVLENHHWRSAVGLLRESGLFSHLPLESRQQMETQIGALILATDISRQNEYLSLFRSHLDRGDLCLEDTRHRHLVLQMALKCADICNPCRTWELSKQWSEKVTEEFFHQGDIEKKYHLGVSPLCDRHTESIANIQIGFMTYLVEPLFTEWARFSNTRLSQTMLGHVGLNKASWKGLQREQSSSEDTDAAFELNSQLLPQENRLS
PDE3A, sequence (Q14432 whole entry): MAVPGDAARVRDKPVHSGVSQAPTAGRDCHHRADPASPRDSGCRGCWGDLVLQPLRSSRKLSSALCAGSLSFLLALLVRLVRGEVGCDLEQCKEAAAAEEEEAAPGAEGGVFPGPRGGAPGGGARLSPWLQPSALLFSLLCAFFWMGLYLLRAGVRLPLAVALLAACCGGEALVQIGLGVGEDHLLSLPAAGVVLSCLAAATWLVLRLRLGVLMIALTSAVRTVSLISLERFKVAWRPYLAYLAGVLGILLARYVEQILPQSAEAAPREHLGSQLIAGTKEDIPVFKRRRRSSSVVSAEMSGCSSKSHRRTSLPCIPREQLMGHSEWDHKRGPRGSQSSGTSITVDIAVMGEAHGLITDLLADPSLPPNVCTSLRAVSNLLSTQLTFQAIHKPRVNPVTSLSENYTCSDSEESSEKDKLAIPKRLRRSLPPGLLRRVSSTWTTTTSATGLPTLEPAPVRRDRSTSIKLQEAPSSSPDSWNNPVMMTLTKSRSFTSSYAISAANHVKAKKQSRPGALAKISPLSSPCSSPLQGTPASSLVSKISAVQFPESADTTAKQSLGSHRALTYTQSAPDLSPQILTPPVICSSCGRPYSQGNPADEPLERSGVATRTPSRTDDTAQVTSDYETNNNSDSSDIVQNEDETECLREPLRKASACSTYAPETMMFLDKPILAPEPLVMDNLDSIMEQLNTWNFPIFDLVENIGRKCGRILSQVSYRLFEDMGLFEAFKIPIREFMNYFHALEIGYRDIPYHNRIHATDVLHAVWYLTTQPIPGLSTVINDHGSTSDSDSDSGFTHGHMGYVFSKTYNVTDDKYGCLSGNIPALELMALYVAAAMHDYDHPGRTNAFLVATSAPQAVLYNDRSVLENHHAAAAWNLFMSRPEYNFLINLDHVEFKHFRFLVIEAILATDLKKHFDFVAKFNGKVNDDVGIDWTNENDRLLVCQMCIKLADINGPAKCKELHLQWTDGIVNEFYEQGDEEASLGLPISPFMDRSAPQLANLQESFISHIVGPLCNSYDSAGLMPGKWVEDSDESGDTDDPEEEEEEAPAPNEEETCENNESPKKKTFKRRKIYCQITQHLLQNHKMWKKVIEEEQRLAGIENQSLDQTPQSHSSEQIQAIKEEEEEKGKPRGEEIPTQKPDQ
PDE11A, sequence (Q9HCR9 whole entry, species assumed): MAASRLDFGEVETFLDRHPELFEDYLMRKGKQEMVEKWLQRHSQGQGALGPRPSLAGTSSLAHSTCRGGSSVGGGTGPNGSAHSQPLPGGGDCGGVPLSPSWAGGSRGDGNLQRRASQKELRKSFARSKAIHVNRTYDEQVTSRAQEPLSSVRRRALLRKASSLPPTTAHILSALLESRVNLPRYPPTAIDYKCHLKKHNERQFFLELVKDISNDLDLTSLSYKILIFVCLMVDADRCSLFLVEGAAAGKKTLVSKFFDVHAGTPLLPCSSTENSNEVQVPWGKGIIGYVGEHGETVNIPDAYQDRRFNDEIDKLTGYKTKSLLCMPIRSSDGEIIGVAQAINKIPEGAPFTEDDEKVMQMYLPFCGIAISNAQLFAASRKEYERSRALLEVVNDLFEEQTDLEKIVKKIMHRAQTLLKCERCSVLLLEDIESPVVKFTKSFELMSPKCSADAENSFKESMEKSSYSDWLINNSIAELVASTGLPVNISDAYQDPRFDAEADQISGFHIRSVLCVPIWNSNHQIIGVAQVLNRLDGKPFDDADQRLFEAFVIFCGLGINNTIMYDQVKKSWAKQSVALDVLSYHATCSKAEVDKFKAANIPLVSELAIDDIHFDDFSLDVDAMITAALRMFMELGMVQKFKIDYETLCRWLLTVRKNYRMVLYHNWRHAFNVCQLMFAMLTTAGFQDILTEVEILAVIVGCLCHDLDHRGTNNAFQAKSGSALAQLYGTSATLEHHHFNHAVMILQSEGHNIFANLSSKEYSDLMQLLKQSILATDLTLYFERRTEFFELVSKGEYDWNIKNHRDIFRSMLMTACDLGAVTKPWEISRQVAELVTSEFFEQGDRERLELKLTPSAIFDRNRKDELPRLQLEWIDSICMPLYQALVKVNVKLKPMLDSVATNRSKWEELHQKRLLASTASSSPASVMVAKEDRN

`COC(C)(C)Cn1cc(-c2c(C)nc3c(-c4ccncc4)nccn23)cn1` [compound 78]: the 50% effective dose (ED50) in [1] (read-out: APO ED50) was found to be 1.2 mg/kg. Further, the “% Occ. at 10 mg/kg” value at PDE10 (10 mg/kg) stood at 76%. The “Selectivity PDE9” value on PDE9A (in vitro selectivity towards PDE10A versus PDE9) was >10-100 fold, except 78 (<10 fold selectivity). In addition, the IC50 in [2] (setting [6]) was 105 nM.

Take `COCCc1ncc(-c2c(C)nc3c(N4CCOCC4)nccn23)cn1` [compound 33, 3-[2-(2-Methoxy-ethyl)-pyrimidin-5-yl]-2-methyl-8-morpholin-4-yl-imidazo[1,2-a]pyrazine]: the IC50 is over 10000 nM on PDE4D; over 10000 nM at PDE3A; over 10000 nM at PDE9A (Table 4a in vitro selectivity, read-out: IC50 PDE type 9A); 2950 nM on PDE1B; over 10000 nM at PDE5A; over 10000 nM at PDE7A. The IC50 is over 10000 nM at PDE11A; 500 nM in [2] (Table 4a in vitro selectivity, read-out: IC50 PDE type 10A); 148 nM in test [2] (setting [6]); over 10000 nM on PDE2A (Table 4a in vitro selectivity, read-out: IC50 PDE type 2A). In addition, in test [1] (read-out: APO ED50), the ED50 was 0.8 mg/kg.

`CO[C@@H](C)Cn1cc(-c2c(C)nc3c(N4CCOCC4)nccn23)cn1` [compound 57]: the 50% effective dose (ED50) was found to be 1.2 mg/kg in test [1] (read-out: APO ED50); 8 mg/kg on PDE10 (rat, sc, occupancy, read-out: Occ. ED50); 5 mg/kg in [3]. Moreover, the “PDE10A2 pIC50” value in test [2] (pIC50 corresponds to the -log IC50 expressed in mol/L) stood at 7.22.

For `Cc1nc2c(N3CCOCC3)nccn2c1-c1cnn(CC(C)C)c1` [compound 97], the ED50 was found to be 5.4 mg/kg in test [4], 2 mg/kg in test [1] (read-out: APO ED50) and 12.3 mg/kg in test [3].

As to `c1cn2c(-c3cnn(CC4CC4)c3)cnc2c(N2CCOCC2)n1` [compound 119], the ED50 in test [1] (not active at 2.5 or at 10 mg/kg, not further tested, read-out: APO ED50 (not active at threshold dose)) was over 2.5 mg/kg. Also, the IC50 in [2] (setting [6]) was 324 nM. Besides, at PDE2A (in vitro selectivity towards PDE10A versus PDE2A), the “Selectivity PDE2A” value is given as “≧10 fold, except compound 119 (>3.02 fold selectivity)”.

Regarding `COc1cc2ncnc(N3CC[C@@H](Oc4cnc5ccccc5n4)C3)c2cc1OC` [PQ10, 6,7-dimethoxy-4-[3(R)-(quinoxalin-2-yloxy)pyrrolidin-1-yl]quinazoline], in test [5] (1 mg/kg p.o. + Scop. 0.1 mg/kg, 1 h delay), the “index of discrimination (d2), mean” value is recorded as 0.27. Besides, the “discrimination compared to the vehicle/scopolamine condition (post-hoc analysis)” value in [5] (1 mg/kg p.o. + scopolamine) is reported as “significantly better discrimination”.

Take `COCCc1ccc(-c2c(C)nc3c(N4CCOCC4)nccn23)cn1` [compound 16, 3-[6-(2-Methoxy-ethyl)-pyridin-3-yl]-2-methyl-8-morpholin-4-yl-imidazo[1,2-a]pyrazine]: the ED50 in test [4] is 1.54 mg/kg; in test [1] (read-out: APO ED50), 1 mg/kg; in [3] it was 2 mg/kg.

These data come from US8859543B2, “Imidazo[1,2-a]pyrazine derivatives and their use for the prevention or treatment of neurological, psychiatric and metabolic disorders and diseases” (Janssen Pharmaceutica NV, priority 2010, dated 2014).
